Data on 63 molecules can be found in a melting point compilation (Tetko et al.; mined from patent text by program, amines drawn as free bases though some values may be those of a salt).

Molecules are shown by their SMILES.

Broadly, the melting point is the temperature, or range, at which the solid turns liquid.

The molecule `OC(CCCN1CCCCC1)c1ccc2c(c1)Cc1cc(C(O)CCCN3CCCCC3)ccc1O2` (stereo not drawn) registered a melting point of 145 to 146 °C.

For `C[C@H](NC(=O)OC(C)(C)C)c1nc2c(C(F)(F)F)cccc2c(=O)o1`, the melting point was found to be 174 °C.

With `CC(C)CC(NC(=O)C(Cc1c[nH]cn1)NC(=O)C(CC(=O)N1CCOCC1)Cc1cccc2ccccc12)C(O)C(=O)OC(C)C` (mixture of isomers), the melting point was 95 to 98 °C.

For the molecule `COc1ccc(-c2nnc(OC)nc2-c2ccc(OC)cc2)cc1`, the melting point was 135 to 137 °C.

`COCCOc1ccc(/C=C/C(=O)NS(=O)(=O)c2ccc(F)cc2)c(Oc2ncc(C(F)(F)F)cc2Cl)c1`: the melting point fell in the range of 183 to 184 °C.

`CCCCNc1c(C(=O)OCC)cnc2c1cnn2CC` yielded a melting point of 82 to 83 °C.

As for `CC(=O)NCCC1CCCc2ccc(O)cc21` (stereo not drawn), the melting point fell in the range of 153 to 155 °C.

With `CCc1cc(Cl)c2cccc(OC)c2n1`, the melting point was in the range of 80 to 81 °C.

`NC(=O)CCc1c[nH]c2ccccc12` came in with a melting point of 140 °C.

In the case of `Fc1ccc(C(=C2SCCCS2)c2ccc(F)cc2)cc1`, the melting point fell in the range of 169 to 171 °C.

In turn, `O=c1[nH]c2cccc(Cl)c2c(=O)n1CCCN1CC=C(c2ccc(Cl)cc2)CC1` gave a melting point of 190 to 194 °C.

Turning to `Nc1nc2ccc(Oc3ccc(F)cc3)cc2s1`, the melting point was 126 to 128 °C.

Molecule `C[C@@H]1N(C(=O)OC(C)(C)C)C(=O)C[C@]1(C)O` had a melting point of 122 to 125 °C.

As for `Cc1ccc(C)c(OCc2ccccc2C(C#N)=NOC(F)F)c1`, the melting point is 104 to 108 °C.

In turn, `O=C(O)C1=Cc2cc(SC(F)(F)F)ccc2OC1C(F)(F)F` (stereo not drawn) returned a melting point of 139 to 143 °C.

The molecule `CN1CC(=O)Nc2cscc2C1=O` came in with a melting point of 263 to 265 °C.

As for `CCOC(=O)c1c(C)nn2ccc3c(c12)C(CC#N)CC3` (stereo not drawn), the melting point lay within 136 to 140 °C.

Turning to `COC(=O)c1cccc(/C=C/C(=O)Nc2ccccc2NC(=O)OC(C)(C)C)c1`, the melting point was 79 to 82.4 °C.

On to `Nc1ncnc2c1c(CCCO)nn2Cc1oc2ccccc2c(=O)c1-c1ccccc1`, for which the melting point was 182 to 184 °C.

In turn, `CCOc1ccc(C(=O)Nc2ccc3ccc(Cl)nc3n2)cc1` showed a melting point of 208 °C.

Consider `COC(=O)c1c2ccccc2nc2ccc(Cl)cc12`, for which the melting point stood at 130 °C.

As to `CCc1nc2c(cnn2CC)c(NC2CCOCC2)c1CNC(=O)c1cccc(C(=O)NCc2ccc(Cl)c(-c3cccc(CN4CCN(C)CC4)c3)c2)c1`, the melting point was in the range of 112 to 114 °C.

For `CCc1nc2c(C)cc(C)nc2n1Cc1ccc(C(c2ccc(C)cc2)C(C(=O)O)C(=O)O)cc1` (stereo not drawn), the melting point lay within 140 to 141 °C.

In turn, `CC1(C)CC(NC(=O)Nc2ccccc2)c2cc(C#N)ccc21` (stereo not drawn) yielded a melting point of 150 to 152 °C.

Molecule `O=C(NO)[C@H]1CN(S(=O)(=O)c2ccc(-c3ccon3)s2)CCN1S(=O)(=O)c1ccc(-c2ccccc2)s1` displayed a melting point of 204 °C.

Take `CCS(=O)(=O)c1ccc(C(=O)O)c(Cl)c1Cl`: the melting point is 170 to 172 °C.

As for `OC1(c2ccc(Cl)cc2)CCN(CCCn2cnc3ccccc32)CC1`, the melting point was found to be 160 °C.

With `Cc1noc(NS(=O)(=O)c2nccs2)c1Br`, the melting point was in the range of 175 to 177 °C.

In the case of `COc1ccc2[nH]c3c(c2c1)C[C@@]1(C)C(=O)N(CCn2ccnc2)C(=O)N1[C@@H]3c1cccc(O)c1` (racemic), the melting point lay within 321 to 324 °C.

For the molecule `O=C(O)c1cc(=O)c(Sc2ccc(Cl)cc2)co1`, the melting point lay in the range of 165 to 167 °C.

`CCOC(=O)C(C)(C)Oc1ccc(OCc2ccccc2)cc1C=O`: the melting point was found to be 65 °C.

For the molecule `COC(=O)CCn1c(C)c(Cn2ccnc2)c2cc(CCC(=O)O)ccc21`, the melting point fell in the range of 134 to 137 °C.

`Cc1ccc2c(Cl)cc(C(=O)NCCCc3ccccc3)c(O)c2n1`: the melting point fell in the range of 109 to 111 °C.

`COC(=O)CCCc1cc2cc(C(F)(F)F)ccc2n1S(=O)(=O)c1ccc2ncsc2c1` showed a melting point of 117 to 121 °C.

In turn, `CC1(C)CC(=O)N(C(=O)Nc2ccccc2)CC(C)(C)N1O` returned a melting point of 112 to 114 °C.

`OC1(COc2cccc3ccccc23)CCN(Cc2ccccc2)C1` (stereo not drawn) returned a melting point of 130 °C.

For the molecule `COC(=O)c1c(-c2ccco2)ccnc1C(=O)c1nc(OC)cc(OC)n1`, the melting point fell in the range of 135 to 140 °C.

Consider `Cc1c(CC(=O)O)c2cc(O)ccc2n1C(=O)c1ccc(F)c(F)c1`, for which the melting point lay within 143 to 145 °C.

On to `COc1cccc(OC)c1Cl`, for which the melting point is 69 to 71 °C.

In the case of `NS(=O)(=O)c1ccc(-c2nn3c(-c4ccc(F)cc4)coc3c2-c2ccc(F)cc2)cc1`, the melting point was 235 to 237 °C.

On to `N#CCC(=O)Nc1ccccc1S`, for which the melting point was in the range of 198 to 201 °C.

`Nc1nnc(C(F)(F)F)c2c1cc1cccc(CCCN3CC4CCC(CC4)C3)n12` returned a melting point of 252 to 253 °C.

Take `CN1C(=O)CN(C(=O)CN)C(c2ccccc2)c2cc(Cl)ccc21` (stereo not drawn): the melting point lay in the range of 158 to 160 °C.

Molecule `COC(=O)CCCCCCCCCCCCCCCO` displayed a melting point of 54.2 °C.

`Cc1cc(N(C)C)ccc1C=Nc1cc(Cl)c(N=CN(C)C)c(Cl)c1` gave a melting point of 64 to 65 °C.

For `O=C(NCCCCOc1cc(CN2CCCCC2)ccn1)c1cn[nH]c1`, the melting point lay in the range of 145 to 147 °C.

As for `CC(C)Cn1cnc2c(N)nc3ccc(-c4cccnc4)cc3c21`, the melting point is 244 to 246 °C.

Turning to `S=c1[nH]ccn1CCc1cccs1`, the melting point fell in the range of 131 to 134 °C.

`Cc1cc(C)nc(Oc2ccc([N+](=O)[O-])cc2)n1` showed a melting point of 108 to 110 °C.

`Cc1[nH]c2ccccc2c1CCCN1CCC(c2noc3ccc(F)cc23)CC1` gave a melting point of 144 to 146 °C.

As to `O=C(O)C1Cc2ccccc2N1C(=O)c1ccccc1` (stereo not drawn), the melting point was in the range of 209 to 210 °C.

As to `CCN1c2ncc(CCc3ccc(C(=O)OC)cc3)cc2C(=O)N(C)c2cccnc21`, the melting point lay within 172 to 173 °C.

`CC(C)(C)C(NC(=O)c1ccc(Cl)cc1)NC(=NC#N)NCc1cccnc1` (stereo not drawn) yielded a melting point of 188 to 189 °C.

The molecule `CCCC(=O)NCCc1c(OC)ccc2ccccc12` had a melting point of 73 to 79 °C.

`O=C(CSCc1ccccc1)CS(=O)(=O)C(c1ccc(Cl)cc1)c1ccc(Cl)cc1` had a melting point of 108 to 110 °C.

On to `O=S1(=O)CNc2cccc3cccc1c23`, for which the melting point lay within 206 to 207 °C.

`O=C(NN=Cc1ccnc2ccccc12)c1cccnc1` registered a melting point of 99.6 °C.

Regarding `COc1ccc2c(c1C)OC(C(=O)O)C2` (stereo not drawn), the melting point fell in the range of 142 to 143 °C.

For `CC[C@H]1c2ccc(C#N)n2-c2cc(F)c(F)cc2N1S(=O)(=O)c1ccc(O)c(C)c1`, the melting point was 201 to 203 °C.

`COc1ccc(Cl)ccc1=O` yielded a melting point of 124 to 126 °C.

On to `CCOC(=O)CCN(CCCCCCN(CCC(=O)OCC)C1CC(C)(C)NC(C)(C)C1)C1CC(C)(C)NC(C)(C)C1`, for which the melting point was in the range of 58 to 60 °C.

`N#Cc1cc2c(-c3cccc(NC(=O)c4cccc(C(F)(F)F)c4)c3)ncnc2s1` yielded a melting point of 210 to 212 °C.

The molecule `Cc1ccc(S(=O)(=O)OCC2CN(c3cc(F)c(N4CCN(C(=O)OC(C)(C)C)CC4)c(F)c3)C(=O)O2)cc1` (stereo not drawn) returned a melting point of 150 to 152 °C.
